Assay results as given in patent publication US20130030012A1, “COMPOUNDS” (Glaxo Group Limited, priority 2011, published 2013).
Structures can show the parent of a compound that is named as a salt.

Tests used:
Lp-PLA2 in human plasma = molecular target: T1, Lp-PLA2 in human plasma (Homo sapiens, UniProt Q13093); assay: Lp-PLA2 human plasma assay (Thio-PAF assay); type: biochemical; conditions: pooled human plasma; read-out: pIC50 values in the thio-PAF assay (converted)
T1 construct: from tissue; host or cells: pooled human plasma
T1 sequence (Q13093 22-441): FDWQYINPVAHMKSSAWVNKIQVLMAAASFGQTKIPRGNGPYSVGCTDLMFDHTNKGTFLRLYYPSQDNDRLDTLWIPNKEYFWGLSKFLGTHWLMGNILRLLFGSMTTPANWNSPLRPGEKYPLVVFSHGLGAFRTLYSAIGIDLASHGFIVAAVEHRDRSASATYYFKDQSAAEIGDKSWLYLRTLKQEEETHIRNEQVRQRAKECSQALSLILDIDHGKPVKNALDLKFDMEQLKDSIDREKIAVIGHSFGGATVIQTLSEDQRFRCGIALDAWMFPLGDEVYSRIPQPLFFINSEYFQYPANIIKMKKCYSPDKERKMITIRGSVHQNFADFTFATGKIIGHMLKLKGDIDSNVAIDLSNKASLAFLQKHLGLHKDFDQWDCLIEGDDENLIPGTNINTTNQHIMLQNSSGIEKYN
From the text: The human plasma assay utilizes a thioester analog of PAF (phosphatidylcholine), where hydrolysis yields to the formation of a phospholipid containing a free thiol group. The amount of thiol is quantitated continuously by reacting with CPM (7-diethylamino-3-(4′-maleimidylphenyl)-4-methylcoumarin), a maleimide which increases in fluoresence after Michael addition of thiols. This assay may detect the activity of Lp-PLA2 in human plasma, as determined by specific inhibition by Lp-PLA2 inhibitors.
The thio-PAF assay was run as a quenched 15 μL assay. Compounds source plate was prepared by making 1:3 (by volume) serial dilution of the compounds into pure DMSO on 384-well microplate. 0.01 μL of compounds on compound source plate were transferred to 384 well Greiner 784076 (black) low-volume plates by ECHO liquid dispenser. 8 μL pooled human plasma, which was previously aliquoted and frozen, was added. Plates were centrifuged for 10 sec at 500 rpm. After 30 minutes preincubation, 2 μL of substrate solution comprising 2.5 mM 2-thio-PAF [from ethanol stock], […] CPM [from a DMSO stock] and 3.2 mM NEM (N-ethylmaleimide) [made fresh daily in DMSO] in assay buffer of 50 mM HEPES, pH 7.4, 150 mM NaCl, 1 mM CHAPS was added to 384 well Greiner 784076 (black) low-volume plates by BRAVO liquid handling station. After 2 mins, reaction was quenched with 5 μL of 5% aqueous trifluoroacetic acid (TFA). Plates were covered to protect from light and incubated for 40 min at room temperature. Plates were read at ex: 380/em: 485 using—Envision microplate reader. pIC50 data, curve and QC analysis was conducted by using XLFit module in Excel.

[1] = molecular target: T2, recombinant human Lp-PLA2 (Homo sapiens, UniProt Q13093); assay: Recombinant human Lp-PLA2 assay (rhLp-PLA2, PED6 assay); type: biochemical; conditions: upper limit for pIC50 in this assay is 9.3; read-out: pIC50 values in the PED6 assay (converted)
T2 sequence (Q13093 22-441): T1 sequence (Q13093 22-441)
From the text: (1) Recombinant Human Lp-PLA2 Assay (rhLp-PLA2) (Also Referred to as “PED6” Assay)
N-((6-(2,4-dinitrophenyl)amino)-hexanoyl)-2-(4,4-difluoro-5,7-dimethyl-4-bora-3a,4a-diaza-s-indacene-3-pentanoyl)-1-hexadecanoyl-sn-glycero-3-phosphoethanolamine, triethylammonium salt (PED6) is a commercially available fluorescently-labeled phospholipid, which is commercially available from Invitrogene and Molecular Probes. There is a quenching […] and a Bodipy fluorescein (FL) group in the sn2 position. Upon cleavage with Lp-PLA2, the Bodipy FL group is liberated and then may result in an increase in fluorescence. Inhibitors of Lp-PLA2 therefore prevent this cleavage and no fluorescent increase is observed.
The PED6 assay was run as an unquenched 10 μL assay. The source plate containing the compounds to be tested was prepared by making 1:3 (by volume) serial dilution of the compounds within DMSO on 384-well microplate. Then, 0.01 μL of the compounds on compound source plate were transferred into 384 well Greiner 784076 (black) plates using ECHO liquid dispenser. 5 μL of recombinant human Lp-PLA2 enzyme (4 nM (or 110 pM) rhLp-PLA2 in assay buffer of 50 mM HEPES, pH 7.4, 150 mM NaCl, 1 mM CHAPS) was added to each well of the plate. Plates were centrifuged for 10 sec at 500 rpm. After 30 minutes preincubation, 5 μL of substrate ([…] (or 5 μM) PED6 [from 5 mM DMSO stock] in assay buffer of 50 mM HEPES, pH 7.4, 150 mM NaCl, 1 mM CHAPS) was added to 384 well Greiner 784076 (black) plates. Plates were centrifuged for 10 sec at 500 rpm. The plate was covered to protect it from light and incubated for 20 min at room temperature. The plates were read for fluorescence intensity at ex: 480/em: 540 using ViewLux microplate imager for Envision spectrofluoroimeters pIC50 data, curve and QC analysis was conducted by using XL fit module in Excel.
The compounds described below were tested generally according to the PED6 assay described above.

SMILES	IC50 (Lp-PLA2 in human plasma)	IC50 [1]
O=c1nc(OCc2cc(F)c(Oc3cccc(F)c3)c(F)c2)cc2n1CCCN2 [Example 115, 8-((3,5-difluoro-4-(3-fluorophenoxy)benzyl)oxy)-3,4-dihydro-1H-pyrimido[1,6-a]pyrimidin-6(2H)-one]	≤ 100 nM	≤ 1 nM
CN1CCCn2c1cc(OCc1cc(F)c(Oc3ccc(F)c(C(F)(F)F)c3)c(F)c1)nc2=O [Example 88, 8-((3,5-difluoro-4-(4-fluoro-3-(trifluoromethyl)phenoxy)benzyl)oxy)-1-methyl-3,4-dihydro-1H-pyrimido[1,6-a]pyrimidin-6(2H)-one]	≤ 100 nM	≤ 1 nM
CN1CCCn2c1cc(OCc1cc(F)c(Oc3ccc(F)cc3)c(F)c1)nc2=O [Example 87, 8-((3,5-difluoro-4-(4-fluorophenoxy)benzyl)oxy)-1-methyl-3,4-dihydro-1H-pyrimido[1,6-a]pyrimidin-6(2H)-one]	≤ 1000 nM	≤ 10 nM
CN1CCCn2c1cc(OCc1ccc(Oc3ccc(F)c(F)c3)c(F)c1)nc2=O [Example 5, 8-((4-(3,4-difluorophenoxy)-3-fluorobenzyl)oxy)-1-methyl-3,4-dihydro-1H-pyrimido[1,6-a]pyrimidin-6(2H)-one]	≤ 100 nM	≤ 10 nM
CN1CCCn2c1cc(OCc1cc(F)c(Oc3cccc(F)c3)c(F)c1)nc2=O [Example 78, 8-((3,5-difluoro-4-(3-fluorophenoxy)benzyl)oxy)-1-methyl-3,4-dihydro-1H-pyrimido[1,6-a]pyrimidin-6(2H)-one]	≤ 1000 nM	≤ 10 nM
N#Cc1ccc(Oc2ccc(COc3cc4n(c(=O)n3)CCCN4)cc2C#N)cc1F [Example 104, 4-(2-cyano-4-(((6-oxo-2,3,4,6-tetrahydro-1H-pyrimido[1,6-a]pyrimidin-8-yl)oxy)methyl)phenoxy)-2-fluorobenzonitrile]	≤ 100 nM	≤ 1 nM
CN1CCCn2c1cc(OCc1cc(F)cc(C#N)c1)nc2=O [Example 33, 3-fluoro-5-(((1-methyl-6-oxo-2,3,4,6-tetrahydro-1H-pyrimido[1,6-a]pyrimidin-8-yl)oxy)methyl)benzonitrile]	≤ 100 nM	–
O=c1nc(OCCc2ccc(F)c(F)c2)cc2n1CCCN2 [Example 111, 8-(3,4-difluorophenethoxy)-3,4-dihydro-1H-pyrimido[1,6-a]pyrimidin-6(2H)-one]	≤ 1000 nM	–
CN1CCCn2c1cc(OCc1cccc(F)c1F)nc2=O [Example 12, 8-((2,3-difluorobenzyl)oxy)-1-methyl-3,4-dihydro-1H-pyrimido[1,6-a]pyrimidin-6(2H)-one]	≤ 1000 nM	–
CN1CCCn2c1cc(OCc1ccc(Oc3ccc(Cl)c(F)c3)c(C#N)c1)nc2=O [Example 96, 2-(4-chloro-3-fluorophenoxy)-5-(((1-methyl-6-oxo-2,3,4,6-tetrahydro-1H-pyrimido[1,6-a]pyrimidin-8-yl)oxy)methyl)benzonitrile]	≤ 100 nM	≤ 1 nM
N#Cc1ccc(Oc2ccc(COc3cc4n(c(=O)n3)CCCN4)cc2C#N)cc1Cl [Example 106, 2-chloro-4-(2-cyano-4-(((6-oxo-2,3,4,6-tetrahydro-1H-pyrimido[1,6-a]pyrimidin-8-yl)oxy)methyl)phenoxy)benzonitrile]	≤ 100 nM	≤ 10 nM
CN1CCCn2c1cc(OCc1ccc(Oc3cccc(C#N)c3)c(F)c1)nc2=O [Example 85, 3-(2-fluoro-4-(((1-methyl-6-oxo-2,3,4,6-tetrahydro-1H-pyrimido[1,6-a]pyrimidin-8-yl)oxy)methyl)phenoxy)benzonitrile]	≤ 1000 nM	≤ 10 nM
CN1CCCn2c1cc(SCc1ccc(F)cc1)nc2=O [Example 66, 8-(4-Fluoro-benzylsulfanyl)-1-methyl-1,2,3,4-tetrahydro-pyrimido[1,6-a]pyrimidin-6-one]	≤ 1000 nM	–
Cc1ccc(Oc2ccc(COc3cc4n(c(=O)n3)CCCN4)cc2)cc1F [Example 108, 8-((4-(3-fluoro-4-methylphenoxy)benzyl)oxy)-3,4-dihydro-1H-pyrimido[1,6-a]pyrimidin-6(2H)-one]	–	≤ 10 nM
CN1CCCn2c1cc(OCc1ccc(Oc3ccc(F)c(F)c3)cc1)nc2=O [Example 14, 8-((4-(3,4-difluorophenoxy)benzyl)oxy)-1-methyl-3,4-dihydro-1H-pyrimido[1,6-a]pyrimidin-6(2H)-one]	–	≤ 10 nM
CN1CCCn2c1cc(OCCc1ccc(Oc3ccc(F)c(F)c3)cc1)nc2=O [Example 110, 8-(4-(3,4-difluorophenoxy)phenethoxy)-1-methyl-3,4-dihydro-1H-pyrimido[1,6-a]pyrimidin-6(2H)-one]	–	≤ 10 nM
CN1CCCn2c1cc(OCc1cc(F)cc(F)c1)nc2=O [Example 31, 8-((3,5-difluorobenzyl)oxy)-1-methyl-3,4-dihydro-1H-pyrimido[1,6-a]pyrimidin-6(2H)-one]	≤ 1000 nM	–
CN1CCCn2c1cc(NCCc1ccc(Oc3ccc(Cl)c(C(F)(F)F)c3)cc1)nc2=O [Example 9, 8-((4-(4-chloro-3-(trifluoromethyl)phenoxy)phenethyl)amino)-1-methyl-3,4-dihydro-1H-pyrimido[1,6-a]pyrimidin-6(2H)-one, trifluoroacetic acid salt]	≤ 1000 nM	–
CN1CCCn2c1cc(OCc1ccc(F)cc1)nc2=O [Example 8, 8-((4-fluorobenzyl)oxy)-1-methyl-3,4-dihydro-1H-pyrimido[1,6-a]pyrimidin-6(2H)-one]	≤ 1000 nM	–
CN1CCCn2c1cc(OCc1cccc(F)c1)nc2=O [Example 37, 8-((3-fluorobenzyl)oxy)-1-methyl-3,4-dihydro-1H-pyrimido[1,6-a]pyrimidin-6(2H)-one]	≤ 100 nM	–
CN1CCCn2c1cc(OCc1cccc(C#N)c1)nc2=O [Example 27, 3-(((1-methyl-6-oxo-2,3,4,6-tetrahydro-1H-pyrimido[1,6-a]pyrimidin-8-yl)oxy)methyl)benzonitrile]	≤ 100 nM	–
O=c1nc(OCCc2ccc(Cl)c(Cl)c2)cc2n1CCCN2 [Example 112, 8-(3,4-dichlorophenethoxy)-3,4-dihydro-1H-pyrimido[1,6-a]pyrimidin-6(2H)-one]	≤ 100 nM	–
CN1CCCn2c1cc(OCc1ccc(Oc3cncnc3)c(C#N)c1)nc2=O [Example 86, 5-(((1-methyl-6-oxo-2,3,4,6-tetrahydro-1H-pyrimido[1,6-a]pyrimidin-8-yl)oxy)methyl)-2-(pyrimidin-5-yloxy)benzonitrile]	≤ 1000 nM	–
CN1CCCn2c1cc(OCc1ccc(F)cc1F)nc2=O [Example 20, 8-((2,4-difluorobenzyl)oxy)-1-methyl-3,4-dihydro-1H-pyrimido[1,6-a]pyrimidin-6(2H)-one]	≤ 1000 nM	–
